The values below come from patent US20100261749A1, “METHOD OF PREVENTING OR AMELIORATING PSORIASIS USING PYRROLOQUINOLINE QUINONE COMPOUNDS” (KYOWA HAKKO BIO CO., LTD., priority 2007, published 2010).

Experiment [1] has as its system CD3-positive T lymphocytes in the epidermis. Put plainly: Number of CD3-positive T lymphocytes in epidermis, anti-CD3 immunostaining. Format: in vivo, mice. The method, then: (§1) For testing, HOS: HR-1 mice (female, 4 weeks old, purchased from Hoshino Laboratory Animmals, Inc.) were used. Mice were raised under conditions of a room temperature of 22±3° C. and a humidity of 50±25% while being fed with feed and water ad libitum.
(§2) Each test group consisted of 8 mice. The mice of the 1st group were fed with a commercially available powder feed product “CE-2.” The mice of the 2nd group were fed with a specialty feed product (produced by Nosan Corporation). The mice of the 3rd group were fed with a specialty feed product containing 0.0089% by weight of pyrroloquinoline quinone disodium salt (hereinafter referred to as PQQ disodium salt, produced by Mitsubishi Gas Chemical Company, Inc.). In addition, it has been known that HOS: HR-1 mice develop dry skin after being fed with the above specialty feed product (The Journal of international medical research pharmacology, 32, 392-399 (2004)).
In addition, counting of the number of CD3-positive T lymphocytes in the epidermis was carried out with the use of anti-CD3 immunostained specimens. The counting area was the dermis located above the cutaneous muscle. The number of cells in the epidermis (per mm of the baseline) was obtained by dividing the determined cell number by the length of a straight line extending between both ends of the cutaneous muscle (baseline). […]

For experiment [2], the system named is HOS: HR-1 mice. As to the kind of experiment: Epidermis thickness, paraffin sections of mouse dorsal skin. Format: in vivo. As for the experimental part: as §1, §2
Paraffin sections of mouse dorsal skin fixed with neutral buffer containing 10 vol % formalin were prepared for the determination of epidermis thickness. Table 3 lists results of the determination of epidermis thickness 6 weeks after the initiation of the test.

In experiment [3] the test system is HOS: HR-1 mice. Put plainly: Skin moisture content (conductance) in dry skin mouse models, SKICON-200. Format: in vivo. To be noted: for Conductance (skin moisture content): specialty feed containing 0.0089% by weight PQQ disodium salt, group average. The method, then:
as §1, §2
In addition, the skin moisture content (conductance) was determined with SKICON-200 (produced by IBS) and the average value for each group was calculated. Table 2 lists results of determination of the skin moisture content from week 0 to week 6 after the initiation of the test.

Experiment [4] concerns mast cells in dermis. Put plainly: Number of mast cells in dermis, May-Grunwald-Giemsa staining. It is filed as in vivo, mice. As for the experimental part:
as §1, §2
The number of mast cells in dermis was determined with the use of May-Grunwald-Giemsa staining specimens. The counting area was the dermis located above the cutaneous muscle. The number of cells in the dermis (per 1 mm of the baseline) was obtained by dividing the determined cell number by the length of a straight line extending between both ends of the cutaneous muscle (baseline). […]

Experiment [5] concerns HOS: HR-1 mice. Put plainly: Transepidermal water loss (TEWL) in dry skin mouse models, Tewameter TM210. It is filed as in vivo. To be noted: for TEWL value: specialty feed containing 0.0089% by weight PQQ disodium salt, right buttock, group average. The method, then:
as §1, §2
Upon the initiation of feeding with each feed product and 2, 4, and 6 weeks later, the transepidermal water loss (TEWL) of the right buttock of each mouse was determined with the use of a Tewameter TM210 (Courage+Khazaka electronic GmbH, Germany) and the average value for each group was calculated.

[6] abbreviates: 3rd group versus 2nd group, 6 weeks.
Where [7] appears, read: 6 weeks after initiation, specialty feed containing 0.0089% by weight PQQ disodium salt, *p < 0.05 for the 2nd group.
Where [8] appears, read: 3rd group versus 2nd group (specialty feed without PQQ disodium salt).
The mark [9] stands for this setting: feeding period 0 weeks (initiation).

Consider `O=C(O)c1cc(C(=O)O)c2c(n1)C(=O)C(=O)c1cc(C(=O)O)[nH]c1-2.[Na].[Na]` [PQQ disodium salt, pyrroloquinoline quinone disodium salt], for which the “Number of CD3-positive cells in the epidermis, result in words” value in experiment [1] (setting [6]) was “the number of CD3-positive cells in the epidermis was suppressed”. Moreover, the “Number of CD3-positive cells in epidermis per mm basal line” value in experiment [1] (setting [7]) was 18.95* cells/mm basal line. The “Epidermis thickening, result in words” value in experiment [2] (setting [6]) is recorded as “epidermis thickening was suppressed”. Moreover, the Epidermis thickness in experiment [2] (6 weeks after initiation, dorsal skin, specialty feed containing 0.0089% by weight PQQ disodium salt) is given as 64.03 μm. Besides, the “Skin moisture content (conductance), result in words” value in experiment [3] (setting [8]) is “increased to a greater extent than that in the 2nd group”. Besides, the “Conductance (skin moisture content)” value turned out to be 414.55 μS in experiment [3] (setting [9]), 67.83 μS in experiment [3] (feeding period 2 weeks), 41.95 μS in experiment [3] (feeding period 4 weeks) and 39.03 μS in experiment [3] (feeding period 6 weeks). In experiment [4] (setting [6]), the “Number of mast cells in the dermis, result in words” value is reported as “the number of mast cells in the dermis was suppressed”. Moreover, the “Number of mast cells in dermis per mm basal line” value in experiment [4] (setting [7]) is given as 54.62* cells/mm basal line. Also, the “Transepidermal water loss value (TEWL value), result in words” value in experiment [5] (setting [8]) is “suppressed to a level lower than that in the 2nd group”. In addition, the TEWL value in experiment [5] (setting [9]) turned out to be 4.94 g/m²/h; in experiment [5] (feeding period 2 weeks), 17.9 g/m²/h; in experiment [5] (feeding period 4 weeks) it was 27 g/m²/h; in experiment [5] (feeding period 6 weeks), 29.9 g/m²/h.
